Measured values published in article PMC6862331, “Identification of Isoform-Selective Ligands for the Middle Domain of Heat Shock Protein 90 (Hsp90)” (International Journal of Molecular Sciences, 2019).
Values joined by “and” are separate entries in the source; they are usually repeats but may differ in a detail not shown here. Equal values may be shown once. “Also recorded” adds a separate entry of the source. Read-outs that look alike come from different tables or passages of the source.

Key:
[1] = biological target: T1, recombinant human Hsp90α MD (Homo sapiens, UniProt P07900); test: Intrinsic tryptophan fluorescence spectroscopy (quenching screen and KD titration) with Hsp90α MD; assay type: binding; conditions: for binding to Hsp90α MD in initial screening: less than 40% quenching eliminated
T1 construct: made in house; host or cells: Escherichia coli BL21 (DE3)
Description: (§1) As a result of virtual screening, 24 hit compounds (Figure 1 and Table S3) were selected for further experimental testing against recombinant human Hsp90α MD (residues 294 to 554, Table S4) and human Hsp90β MD (residues 286 to 546, Table S5). As there are tryptophan residues located within the defined binding pocket in both Hsp90α MD and Hsp90β MD, intrinsic tryptophan fluorescence quenching experiment was used to screen the binding of our virtual hits to the proteins. Initial screening experiments were conducted by using 20 μM of Hsp90α/β MD and 1 mM of compounds. Molecules that gave less than 40% fluorescence quenching were eliminated.
(§2) We then focussed on studying the binding of our compounds (5, 8, 9, 10, 12, 17, 22, 24) to both Hsp90α MD and Hsp90β MD. Titration experiments were performed to quantify the binding affinity (dissociation constant, KD) to Hsp90α MD and Hsp90β MD (Table 1 and Figures S3–S10). The KD values of gambogic acid were also measured as control (Table 1 and Figure S11). […] Our KD values for gambogic acid are in agreement with previous studies (~10-fold preference). The selectivity for the β-isoform (over α-isoforms) was progressively less for weaker binders.
(§3) Fluorescence was measured using EnSpire Multimode Plate Reader (PerkinElmer, Melbourne, Australia). Experiments were performed in 20 µM of Hsp90 MD in 20 mM Tris (pH 7.5) and 0.2 M KCl. Different concentration of the virtual hits (InterBioScreen, Bar, Montenegro) or gambogic acid were added to the mixture. Excitation wavelength was 280 nm and intrinsic fluorescence was measured between 300 and 450 nm. The control experiment with Hsp90 MD on its own was conducted. Background fluorescence arising from the compound was subtracted to generate the final spectrum. The total volume per well of the 96-well microplate was 30 µL. Non-linear curve fitting of Equation (1) to the data was conducted using SigmaPlot 14.0 (Systat Software, San Jose, CA, USA). All tests were conducted in triplicate and the errors shown are standard deviation. KD was calculated for each binder using Equation (1), where Δobs is the changes in fluorescence intensity from the titrations, Δmax is the maximum fluorescence intensity change, [LT] represents the titrated ligand concentration, and [PT] indicates the protein concentration.
(§4) (1) Δobs=Δmax×(KD+[LT]+[PT])−(KD+[LT]+[PT])^2−(4×[PT]×[LT])/2×[PT]
(§5) Supplementary Figure S2. Screening of the virtual hits (1 mM) to Hsp90α/β MD (20 μM) by intrinsic protein fluorescence. Percentage fluorescence quenching was calculated with the […]
(§6) % Fluorescence quenching = (Iprotein − Iprotein+compound) […]
(§7) In which Iprotein denotes intrinsic fluorescence intensity of the protein in the absence of any compound, Iprotein+compound denotes intrinsic fluorescence intensity of the protein in the presence of the compound. Experiments were conducted in triplicate. Errors shown are standard […]
(§8) (1 picture or pasted object on this page, not shown here)

[2] = biological target: T2, recombinant human Hsp90β MD (Homo sapiens, UniProt P08238); test: Intrinsic tryptophan fluorescence spectroscopy (quenching screen and KD titration) with Hsp90β MD; assay type: binding; conditions: for binding to Hsp90β MD in initial screening: less than 40% quenching eliminated; for Kd: titration, 20 µM Hsp90 MD, 20 mM Tris pH 7.5, 0.2 M KCl, triplicate, error = SD; for selectivity (preference) for the β-isoform over the α-isoform in terms of KD: Hsp90β MD vs Hsp90α MD
T2 construct: made in house; host or cells: Escherichia coli BL21 (DE3)
T2 sequence (P08238 286-546): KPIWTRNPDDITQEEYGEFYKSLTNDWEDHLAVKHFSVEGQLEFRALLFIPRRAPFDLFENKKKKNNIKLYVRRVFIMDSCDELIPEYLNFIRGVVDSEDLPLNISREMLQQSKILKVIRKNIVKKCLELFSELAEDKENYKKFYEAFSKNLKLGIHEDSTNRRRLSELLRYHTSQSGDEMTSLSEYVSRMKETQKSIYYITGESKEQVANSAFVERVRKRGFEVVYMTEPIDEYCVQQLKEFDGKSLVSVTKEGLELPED
Description: as §1, §2, §3, §4, §5, §6, §7, §8

[3] = biological target: T2, recombinant human Hsp90β MD; set-up: method as in PMID 27466407; conditions: cited from earlier work
[4] = titration, 20 µM Hsp90 MD, 20 mM Tris pH 7.5, 0.2 M KCl, triplicate, error = SD, read-out: KD to Hsp90α MD
[5] = initial screen, 1 mM compound, 20 μM protein

Structure (SMILES)	binding to Hsp90α MD in initial screening ([1]; 1 mM compound, 20 μM protein)	Kd [1, 4] [µM]	binding to Hsp90β MD in initial screening ([2]; 1 mM compound, 20 μM protein)	Kd ([2]; read-out: KD to Hsp90β MD)	selectivity (preference) for the β-isoform over the α-isoform in terms of KD [2]	Kd [1] [µM]	fluorescence quenching of Hsp90α MD [1, 5]	Kd ([2]; KD to Hsp90β MD)	fluorescence quenching of Hsp90β MD [2, 5]	preference for Hsp90β MD over Hsp90α MD, previous study [3]
CCC[C@@H](NC(=O)C(C)Oc1ccc2c(-c3ccccc3)cc(=O)oc2c1)C(=O)O (stereo partly drawn) [Compound 5, (2R)-2-(2-((2-oxo-4-phenyl-2H-chromen-7-yl)oxy)propanamido)pentanoic acid]	bind to both Hsp90α MD and Hsp90β MD	470 ± 2	bind to both Hsp90α MD and Hsp90β MD	136 ± 1 µM	–	–	–	–	–	–
O=C(CNC(=O)OCc1ccccc1)Oc1cc(O)c2c(=O)cc(-c3ccccc3)oc2c1 [Compound 8, 5-hydroxy-4-oxo-2-phenyl-4H-chromen-7-yl ((benzyloxy)carbonyl)glycinate]	bind to both Hsp90α MD and Hsp90β MD	284 ± 4	bind to both Hsp90α MD and Hsp90β MD	> 500 µM	slight preference for Hsp90α MD	–	–	–	–	–
CCC(C)[C@@H](NC(=O)C(C)Oc1ccc2c(-c3ccccc3)cc(=O)oc2c1)C(=O)O (stereo partly drawn) [Compound 9, (2R)-3-methyl-2-(2-((2-oxo-4-phenyl-2H-chromen-7-yl)oxy)propanamido)pentanoic acid]	bind to both Hsp90α MD and Hsp90β MD	299 ± 3	bind to both Hsp90α MD and Hsp90β MD	57 ± 1 µM	–	–	–	–	–	–
CN[C@H]1CCc2cc(OC)c(OC)c(OC)c2-c2ccc(NCc3cccnc3)c(=O)cc21 [Compound 10, (S)-1,2,3-trimethoxy-7-(methylamino)-10-((pyridin-3-ylmethyl)amino)-6,7-dihydrobenzo[a]heptalen-9(5H)-one]	–	–	–	–	bind stronger to Hsp90β MD than to Hsp90α MD	> 500	~ 20%	> 100 µM and 164 µM	~ 90%	–
O=C(CC1=C(O)C(=O)c2ccccc2C1=O)c1ccccc1 [Compound 12, 2-hydroxy-3-(2-oxo-2-phenylethyl)naphthalene-1,4-dione]	bind to both Hsp90α MD and Hsp90β MD	92 ± 0.8	bind to both Hsp90α MD and Hsp90β MD	< 20 µM	bind stronger to Hsp90β MD than to Hsp90α MD; also recorded: seven-fold	–	–	–	–	–
CC(=O)N[C@H]1[C@H](Oc2ccc3c(=O)c(-c4ccc5c(c4)OCCCO5)c(C)oc3c2)O[C@H](CO)[C@@H](O)[C@@H]1O [Compound 17, N-((2S,3R,4R,5S,6R)-2-((3-(3,4-dihydro-2H-benzo[b][1,4]dioxepin-7-yl)-2-methyl-4-oxo-4H-chromen-7-yl)oxy)-4,5-dihydroxy-6-(hydroxymethyl)tetrahydro-2H-pyran-3-yl)acetamide]	bind to both Hsp90α MD and Hsp90β MD	506 ± 4	bind to both Hsp90α MD and Hsp90β MD	> 100 µM and 285 µM	bind stronger to Hsp90β MD than to Hsp90α MD	–	–	–	–	–
COc1cc(C(=O)NC(Cc2ccccc2)C(=O)O)cc(OC)c1OC (centres unmarked) [Compound 22, (3,4,5-trimethoxybenzoyl)phenylalanine]	bind to both Hsp90α MD and Hsp90β MD	459 ± 7	bind to both Hsp90α MD and Hsp90β MD	> 500 µM	slight preference for Hsp90α MD	–	–	–	–	–
COc1cc(C2NC(C(=O)O)Cc3c2[nH]c2ccc(OCc4ccccc4)cc32)cc(OC)c1OC (centres unmarked) [Compound 24, 6-(benzyloxy)-1-(3,4,5-trimethoxyphenyl)-2,3,4,9-tetrahydro-1H-pyrido[3,4-b]indole-3-carboxylic acid]	bind to both Hsp90α MD and Hsp90β MD	661 ± 3	bind to both Hsp90α MD and Hsp90β MD	> 100 µM and 265 µM	bind stronger to Hsp90β MD than to Hsp90α MD	–	–	–	–	–
CC(C)=CCC[C@]1(C)C=Cc2c(O)c3c(c(CC=C(C)C)c2O1)O[C@]12C(=C[C@@H]4C[C@H]1C(C)(C)O[C@@]2(C/C=C(/C)C(=O)O)C4=O)C3=O [Gambogic acid, reference compound]	–	195 ± 5	–	33 ± 2 µM	–	–	–	–	–	~ 7 fold
